US11857604B2, “Nanovectors and uses” (NH THERAGUIX, priority 2017, dated 2024)

Experiment: physisorption of active substance on nanoparticles: tangential filtration (3 kDa Vivaspin), subnatant analysed by UV-visible/fluorescence
Format: physicochemical
Conditions: for concentration up to which retention of the active substance is observed (minimum) / load content by weight: AGuIX® at 100 mM [Gd3+] = 100 g/l of nanoparticles
Experimental: During the various examples, the maximum drug load content on polysiloxane nanoparticles was determined, when said particles are present at a concentration corresponding to a concentration used during clinical trials for the nanoparticle in question. Increasing concentrations of active substances were thus brought into contact with the nanoparticles. Solutions are purified by tangential filtration. The molecules which have not be able to adsorb to the surface of the nanoparticles pass through the membrane and are found in the subnatant, where they can be detected by spectroscopic techniques such as UV/Visible absorption or else fluorescence spectroscopy (FIG. 2).
This solution is placed in a 3 kDa Vivaspin®, and a tangential filtration cycle is carried out in order to obtain a supernatant of 200 μl. The subnatant is analysed by UV-visible analysis. The supernatant is diluted 50-fold and is analysed by UV-visible analysis.
This solution is placed in a 3 kDa Vivaspin®, and a tangential filtration cycle is carried out so as to obtain a supernatant of 200 μl. The subnatant is analysed by UV-visible analysis and fluorometry after 20-fold dilution.
This solution is placed in a 3 kDa Vivaspin®, and a tangential filtration cycle is carried out so as to obtain a supernatant of 160 μl. The subnatant is analysed by UV-visible analysis. The cisplatin is detectable by UV/VIS absorption at a wavelength of 706 nm after reaction with ODPA. For the reaction with cisplatin, a solution of ODPA at 1.4 mg/ml and a phosphate buffer (pH 6.8) are prepared. The subnatant is diluted 5-fold. 140 μl of this solution are added to 200 μl of buffer and 100 μl of ODPA. The resulting solution is heated at 100° C. for 15 min. Once the reaction is finished and the temperature has returned to ambient temperature, 560 μl of DMF are added. The final solution is filtered and then analysed by UV-visible analysis.

| concentration up to which retention of the active substance is observed (minimum) [µg/mL] | load content by weight | limiting concentration up to which the peptide adsorbs at the surface of the nanoparticles (AGuIX® 100 mM, absorption at 280 nm of subnatants (FIG. 12)) | Compound | limiting concentration up to which cisplatin adsorbs at the surface of the nanoparticles (AGuIX® 100 mM, absorption at 706 nm of ODPA-treated subnatants (FIG. 16)) |
| --- | --- | --- | --- | --- |
| ≥ 112 | greater than 1.12 mg/g of nanoparticles | – | COc1cccc2c1C(=O)c1c(O)c3c(c(O)c1C2=O)C[C@@](O)(C(=O)CO)C[C@@H]3O[C@H]1C[C@H](N)[C@H](O)[C@H](C)O1 [doxorubicin] | – |
| ≥ 2000 | greater than 20 mg/g of nanoparticles | approximately 2 g·L^1 | tyr3-octreotate [TATE peptide] | – |

| Compound | concentration up to which retention of the active substance is observed (minimum) [µg/mL] | load content by weight | limiting concentration up to which the peptide adsorbs at the surface of the nanoparticles (AGuIX® 100 mM, absorption at 280 nm of subnatants (FIG. 12)) | limiting concentration up to which cisplatin adsorbs at the surface of the nanoparticles (AGuIX® 100 mM, absorption at 706 nm of ODPA-treated subnatants (FIG. 16)) |
| --- | --- | --- | --- | --- |
| N.N.[Cl][Pt][Cl] [cisplatin] | ≥ 240 | greater than 2.4 mg/g of nanoparticles | – | approximately 240 mg·L^−1 |
